Data reported in US20160361314A1, “COMBINATION OF AN ALK INHIBITOR AND A CDK INHIBITOR FOR THE TREATMENT OF CELL PROLIFERATIVE DISEASES” (NOVARTIS AG, priority 2013, published 2016).

Key:
Test in all cases: Loewe additivity (CHALICE) synergy screen, CellTiter-Glo viability, 7x7 dose matrix
Format in all cases: cell-based
[1] = system: IMR-5 human neuroblastoma cells; parameters: key to Max Combo Effect: growth inhibition scale; 100 = stasis
Experimental: (§1) The synergistic interaction of drug combinations were assessed based on the Loewe Additivity Model using Chalice software [CombinatoRx, Cambridge Mass.]). […] 27:659-66. The software compares the response (% inhibition or % reduction of cell viability) of drug treatment from a combination of two agents to the response of the agents acting alone, against the drug-with-itself dose-additive reference model (the Loewe Additivity Model). Deviations from dose additives can be assessed numerically with a “synergy score” which quantifies the overall strength of combination effect. A synergy score >0 indicates a synergistic combination. In order to ensure only strongly synergistic combinations were selected, the acceptance criteria were set at a higher level. Strongly synergistic combinations were defined as having both a synergy score >2, a synergy score that is twice as large as the background (non-synergy) model would predict, and a maximum efficacy of >100, a value equivalent to stasis, as determined from the growth inhibition calculation.
(§2) After treatment, cell viabilty (quantity of viable cells) for each test mixtures were determined by the CellTiter-Glo® (CTG) luminescent cell viability assay (Promega) described in the Assay section, infra. […] The response to treatment (% reduction of cell viability) was analyzed using Chalice software [CombinatoRx, Cambridge Mass.]). Data evaluation and graph generation were performed using Microsoft Excel software and Chalice software.
(§3) The combinations were tested in duplicate using a 7×7 dose matrix block in 1536 well format with a cell proliferation readout as described in the Assay section infra.
(§4) All synergy calculations were performed using CHALICE software package from Zalicus and potential synergistic interactions between compound combinations were assessed using the Excess Inhibition 2D matrix according to the Loewe additivity model and were reported as synergy score (Table 10) (Lehar et al). Strongly synergistic combination were identified as having both (1) a synergy score greater than 2, a synergy score that is twice as large as the background (non-synergy) model would predict, and (2) a maximum efficacy of >100, a value roughly equivalent to stasis, as determined from the growth inhibition calculation.
(§5) Cell viability were determined by measuring cellular ATP content using the CellTiter-Glo® (CTG) luminescent cell viability assay (Promega). […] Reduced and enhanced luminescent signal values (responses) were calculated relative to untreated (control) cells, and the calculated signal value proportional to the cell viability.
(§6) Synergistic combinations were identified based on the Loewe Addivity Model. To measure the effects of drug combinations on the cell viability, cells from the 20 cell lines listed in Table 1 above were seeded into 1536-well assay plates at a density 300 cells per well in a 7 μL final volume and incubated at 37° C. overnight in a GNF Systems incubator with 95% RH and 5% CO2.
(§7) A six-point dose response curve for the test compounds were prepared in a 384 well ECHO compatible source plate (Labcyte P-05525) with 3-fold serial dilution series. For example, for a six-point dose response curve and a top compound concentration of 5 mM, the concentration of the compounds in the source well were 5 mM, 1.67 mM, 0.56 mM, 0.19 mM, 0.06 mM and 0.02 mM.
(§8) Approximately 18 hours after plating, compound combinations were generated on the fly by transferring 7.5 nL of compound from the pre-diluted source plates using the Labcyte ECHO555 integrated onto the ACP-1 system with replicate plates per cell line; the final DMSO concentration per well was 0.2%. It is noted that the total volume in the wells was 7 μL.
(§9) The well at the intersection of the first column and first row which received no compound was dosed with 2×7.5 nL of DMSO and served as control.

[2] = system: KELLY human neuroblastoma cells; parameters: key to Max Combo Effect: growth inhibition scale; 100 = stasis; conditions: KELLY (F1174L)
Experimental: as §1, §2, §3, §4, §5, §6, §7, §8, §9

[3] = system: NB-1691 human neuroblastoma cells; parameters: key to Max Combo Effect: growth inhibition scale; 100 = stasis; conditions: NB-1691 (WT); for Max Combo Effect: in % (unit assumed)
Experimental: as §1, §2, §3, §4, §5, §6, §7, §8, §9

[4] = system: NB-SD human neuroblastoma cells; parameters: key to Max Combo Effect: growth inhibition scale; 100 = stasis; conditions: NB-SD (F1174L); for Max Combo Effect: in % (unit assumed)
Experimental: as §1, §2, §3, §4, §5, §6, §7, §8, §9

[5] = system: SK-N-AS human neuroblastoma cells; parameters: key to Max Combo Effect: growth inhibition scale; 100 = stasis; conditions: SK-N-AS (WT); for Max Combo Effect: in % (unit assumed)
Experimental: as §1, §2, §3, §4, §5, §6, §7, §8, §9

[6] = system: SK-N-FI human neuroblastoma cells; parameters: key to Max Combo Effect: growth inhibition scale; 100 = stasis; conditions: SK-N-FI (WT); for Max Combo Effect: in % (unit assumed)
Experimental: as §1, §2, §3, §4, §5, §6, §7, §8, §9

[7] = system: NGP human neuroblastoma cells; parameters: key to Synergy score (Mean): Loewe excess-inhibition synergy score; >0 synergistic, >2 strong; key to Max Combo Effect: growth inhibition scale; 100 = stasis; conditions: NGP (WT)
Experimental: The synergistic interaction of drug combinations were assessed based on the Loewe Additivity Model using Chalice software [CombinatoRx, Cambridge Mass.]). […] The software compares the response (% inhibition or % reduction of cell viability) of drug treatment from a combination of two agents to the response of the agents acting alone, against the drug-with-itself dose-additive reference model (the Loewe Additivity Model). Deviations from dose additives can be assessed numerically with a “synergy score” which quantifies the overall strength of combination effect. A synergy score >0 indicates a synergistic combination. In order to ensure only strongly synergistic combinations were selected, the acceptance criteria were set at a higher level. Strongly synergistic combinations were defined as having both a synergy score >2, a synergy score that is twice as large as the background (non-synergy) model would predict, and a maximum efficacy of >100, a value equivalent to stasis, as determined from the growth inhibition calculation.
as §2, §5, §6, §8, §9
Following compound addition, the plates were returned to the incubator for 120 hours. The effects of the combinations on cellular viability were assessed with the addition of Cell Titer Glo (Promega G7573) using one of the GNF Bottle Valve dispensers on the ACP-1 system; plates were then incubated at room temperature for ten minutes and read on the integrated Perkin Elmer Viewlux (2 second exposure, 2×bin, high sensitivity). The raw data was normalized using the DMSO-treated cell control well within each plate.
All synergy calculations were performed using CHALICE software from Zalicus. […] Potential synergistic interactions between compound combinations were assessed using the Excess Inhibition 2D matrix according to the Loewe Additivity Model and are reported as synergy score.
Compounds were combined with themselves to determine the effect of assay noise on the synergy assessment parameters of the expected dose-additive interaction. Synergistic combination hits (strongly synergistic) were identified as having both a synergy score >2, a synergy score that is twice as large as the background model (non-synergy) would predict, and a maximum efficacy of >100, a value equivalent to stasis, as determined from the growth inhibition calculation.

| Compound | Max Combo Effect ([1]; IMR-5 (ALK WT), Table 2) | Synergy score (Mean) ([1]; IMR-5 (ALK WT), Table 2) | Max Combo Effect ([2]; Table 2) | Synergy score (Mean) ([2]; Table 2) | Synergy score (Mean) ([3]; Table 2) | Max Combo Effect ([3]; Table 2) | Synergy score (Mean) ([4]; Table 2) | Max Combo Effect ([4]; Table 2) | Max Combo Effect ([1]; IMR-5 (WT), Table 3) | Synergy score (Mean) ([1]; IMR-5 (WT), Table 3) | Max Combo Effect ([2]; Table 3) | Synergy score (Mean) ([2]; Table 3) | Synergy score (Mean) ([3]; Table 3) | Max Combo Effect ([3]; Table 3) | Synergy score (Mean) ([4]; Table 3) | Max Combo Effect ([4]; Table 3) | Synergy score (Mean) ([5]; Table 3) | Max Combo Effect ([6]; Table 3) | Max Combo Effect ([7]; Table 3) | Synergy score (Mean) ([7]; Table 3) | also measured |
| --- | --- | --- | --- | --- | --- | --- | --- | --- | --- | --- | --- | --- | --- | --- | --- | --- | --- | --- | --- | --- | --- |
| Cc1cc(Nc2ncc(Cl)c(Nc3ccccc3S(=O)(=O)C(C)C)n2)c(OC(C)C)cc1C1CCNCC1 [Compound A1, 5-chloro-N2-(2-isopropoxy-5-methyl-4-(piperidin-4-yl)phenyl)-N4-[2-(propane-2-sulfonyl)-phenyl]-pyrimidine-2,4-diamine] | 80.4 | 0.884 | 97.7 | 0.900 | 0.760 | 111.9 | 0.908 | 141.5 |  |  |  |  |  |  |  |  |  |  |  |  | Synergy score (Mean) ([5]; Table 2): 0.374; Max Combo Effect ([5]; Table 2): 42.4; Synergy score (Mean) ([6]; Table 2): 1.135; Max Combo Effect ([6]; Table 2): 59.7; Max Combo Effect ([7]; Table 2): 104.1; Synergy score (Mean) ([7]; Table 2): 0.822 |
| C[C@@H](Oc1cc(-c2cnn(C3CCNCC3)c2)cnc1N)c1c(Cl)ccc(F)c1Cl [Compound A3, (R)-3-(1-(2,6-dichloro-3-fluorophenyl)ethoxy)-5-(1-(piperidin-4-yl)-1H-pyrazol-4-yl)pyridin-2-amine, reference compound] |  |  |  |  |  |  |  |  | 99.95 | 0.73 | 134.74 | 0.47 | 0.21 | 36.53 | 0.84 | 75.54 | 0.19 | 20.37 | 11.39 | 0.01 | Max Combo Effect ([5]; Table 3): 55.78 |
| Cc1cc(Nc2nc(Nc3ccccc3S(=O)(=O)C(C)C)c3cn[nH]c3n2)c(OC(C)C)cc1C1CCN(C)CC1 [Compound A2, N6-(2-isopropoxy-5-methyl-4-(1-methylpiperidin-4-yl)phenyl)-N4-(2-(isopropylsulfonyl)phenyl)-1H-pyrazolo[3,4-d]pyrimidine-4,6-diamine] |  |  |  |  |  |  |  |  | 179.71 | 0.23 | 191.61 | 0.64 | 0.97 | 196.56 | 1.38 | 195.92 | 0.20 | 161.68 | 184.04 | 0.84 | Max Combo Effect ([5]; Table 3): 61.99; Synergy score (Mean) ([6]; Table 3): 0.65 |
| CN(C)C(=O)c1cc2cnc(Nc3ccc(N4CCNCC4)cn3)nc2n1C1CCCC1 [Compound B, 7-cyclopentyl-N,N-dimethyl-2-((5-(piperazin-1-yl)pyridin-2-yl)amino)-7H-pyrrolo[2,3-d]pyrimidine-6-carboxamide] | 82.0 | 0.788 | 60.5 | 0.255 | 1.032 | 121.1 | 1.476 | 98.6 | 89.02 | 1.04 | 27.66 | 0.19 | 0.38 | 91.57 | 0.97 | 61.5 | 0.48 | 51.2 | 17.0 | 0.01 | Synergy score (Mean) ([5]; Table 2): 0.503; Max Combo Effect ([5]; Table 2): 64.7; Synergy score (Mean) ([6]; Table 2): 0.435; Max Combo Effect ([6]; Table 2): 60.3; Synergy score (Mean) ([6]; Table 3): 0.21; Max Combo Effect ([7]; Table 2): 31.2; Synergy score (Mean) ([7]; Table 2): 0.084 |
